Assay results published in patent publication US12186332B2, “Methods for overcoming WNT/beta-catenin anti-cancer resistance in leukemia stem cells” (STOWERS INSTITUTE FOR MEDICAL RESEARCH, priority 2019, dated 2025).
Where two headings read alike, the source gives them in different places.

What was measured:
[1] = system: functional, tumorigenic LSCs; assay: Tumorigenic assay: BM of treated leukemic mice transplanted into NSG recipients; format: in vivo, mouse; conditions: [Low]DXR alone; nearly 6 months post-transplant
Description: At 12 days post-treatment, BM was harvested from treated mice and transplanted into sub-lethally irradiated NSG recipients. Treatment and transplantation schematic and Kaplan-Meier curves of recipient mice were shown. Red arrow indicates day 0 in survival curve.
The free [Low]DXR treatment group (solid line) from FIG. 5F is shown for comparison (n=30 per group).
Tumorigenic assays were performed by transplanting 0.5, 1.5, or 4.5×10^4 bone marrow cells from treated mice at 12 days post-treatment into 3.25 Gy irradiated NSG recipient mice. 10 recipients were used for each dose from each group. One male and one female donor was used for each group. Leukemia was assessed in mice euthanized due to poor health by analyzing CD45^HiCD^3+ cell frequency. Mice having >20% Blasts in the bone marrow were considered leukemic. NSG and Ptprc mice were originally obtained from The Jackson Laboratory.

[2] = system: blast cells, LSCs and HSPCs of leukemic Pten:β-cat^Act mice; format: in vivo
Description: Leukemic mice were treated with vehicle, chemotherapy, [Low]DXR (5×0.5 mg/kg), clinical DXR (1×20 mg/kg), or chemotherapy+[Low]DXR as described in FIG. S2.
Average frequency of each population (n≥6 per group) is shown.
Absolute number/femur±SD of each population (n≥6 per group) is shown.
At 10 days post-treatment, BM was analyzed by flow cytometry to determine frequency of blast cells. Average frequency±SD (n 6 per group). Note that this experiment used clinical dose (normal) or [Low]
Alternatively, a single injection on day 1 of 0.8 or 2.5 μg/g of DXR-loaded nanoparticles (NanoDXR) was given with and without chemotherapy. At 10 days post-treatment, BM was analyzed by flow cytometry to determine frequency of LSCs. Shown is average frequency±SD (n 6 per group).
Alternatively, a single injection on day 1 of 0.8 or 2.5 μg/g of DXR-loaded nanoparticles (NanoDXR) was given with and without chemotherapy. At 10 days post-treatment, BM was analyzed by flow cytometry to determine frequency of HSPCs. Shown is average frequency±SD (n 6 per group).
Whole bone marrow was isolated from uninduced HSC-SCL-Cre^+ Pten^fx/fx βcat^fx(Exon3)/+ (Pn:β-cat^Act) mice and combined with an equal portion of Cre negative bone marrow from a littermate and transplanted into irradiated (10 Grays) B6.SJL-Ptprc^a Pepc^b/BoyJ (Ptprc) recipients.
Chemotherapy for the animal model consisted of Nelarabine (Selleck) and Dexamethasone (BioVision) administered daily for 5 days consecutively. 43.4 mg/ml Nelarabine was administered intravenously via the tail vain according to the formula: Body Weight (g)×5=volume to inject (μl), which yielded 217 mg/kg. 2.5 mg/ml Dexamethasone was injected intraperitoneally according to the formula: Body Weight (g)×4=volume to inject (μl), yielding 10 mg/kg. […] [Low] NanoDXR treatment used doxorubicin nanoparticles (Tran et al. 2014) administered as a single IV injection once per week on day 1 relative to above treatments using 0.8 mg/kg. Maintenance [Low] NanoDXR consisted of once per week injections of 0.4 mg/kg. Groups combining Nelarabine with Doxorubicin used a single injection containing both drugs. All drugs were solubilized in 45% (2-Hydroxypropyl)-p-cyclodextrin (HBC) or 0.9% NaCl.
Cells were collected from bone marrow (femur and tibia), spleen, peripheral blood, and thymus. For cell surface phenotyping, a lineage cocktail (Lin) was used including CD3 (for HSPC but not LSC analysis), CD4, CD8, Mac-1, Gr, B220, IgM, and Ter119 (eBioscience, San Diego, CA). Monoclonal antibodies against CD3 (separate fluorophore for LSC analysis), Sca-1, c-Kit, CD45.1, and CD45.2 were also used where indicated. Cell sorting and analysis were performed using an inFlux (BD), MoFlo (Dako, Ft. Collins, CO) and/or CyAn ADP (Dako, Ft. Collins, CO). Data analysis was performed using FlowJo software (Ashland, OR).

[3] = system: β-catenin binding of the Cd24a gene locus; assay: ChIP-qPCR in Ctnnb1-3xFlag mouse ES cells; format: cell-based; conditions: 4 hours
Description: The Ctnnb1-3×Flag mouse ES cell line was provided by Andrew McMahon (University of Southern California) and routinely passaged and maintained on irradiated MEF feeder in conventional ES cell medium supplemented with […] and […] Hygromycin B. Cells were adapted and expanded to serum free 2i culture for experiments. For serum-free 2i culture, ES cells were cultured without serum in the N2B27 medium: neurobasal medium(Invitrogen 21103-049), DMEM/F12 (Invitrogen 10565-018), 0.5×N2 (Invitrogen 17502-048), 0.5×B27 (Invitrogen 17504044), 1×b-mercaptoethanol(Millipore ES-007-E), 2 mM Lglutamine(Invitrogen 25030081), […] non-essential amino acid(NEAA)(SCT 07600), 0.033% BSA(Invitrogen 15260037), […] CHIRON(Tocris 4423), […] PD03 (SCT72184).
A total of 2×10^7 ES cells were used per ChIP assay. Cells were washed with 1×PBS and crosslinked with 1% paraformaldehyde for 10 min at RT and quenched with 1 ml 2.5M glycine. Cells were washed with cold PBS three times and resuspended in […] lysis buffer (15 mM HEPES at pH 7.5, 140 mM NaCl, 1 mM EDTA, 0.5 mM EGTA, 1% Triton X100, 0.1% sodium deoxycholate, 1% SDS, 0.5% N-lauroylsarcosine). […] ChIP-qPCR was performed with Fast SYBR™ Green Master Mix (Thermo Fisher Scientific 4385612) and analyzed with the Student's t-test.

[4] = BM FACS 5 days post-treatment, DXR as [Low]DXR 5×0.5 mg/kg, chemotherapy = Nelarabine+Dexamethasone 5 days
[5] = clinical dose DXR 20 mg/kg alone

COc1cccc2c1C(=O)c1c(O)c3c(c(O)c1C2=O)C[C@@](O)(C(=O)CO)C[C@@H]3O[C@H]1C[C@H](N)[C@H](O)[C@H](C)O1 [DXR, doxorubicin]
recipients that remained healthy [1]: 27/30 | effect on LSCs [2, 4]: significantly reduced | effect on blast cells [2, 4]: no significant effect | blast cell reduction when DXR substitutes for Nelarabine ([2]; [Low]DXR with Dexamethasone, 10 days post-treatment): did not significantly reduce blast cells | HSPC frequency versus vehicle alone [2, 5]: not significantly different | increase of LSC frequency among surviving cells [2, 5]: 5 fold | increase of blast cell frequency among surviving cells [2, 5]: < 2 fold | toxicity in terms of absolute cell number [2, 5]: broadly toxic to all cells | blast cell reduction when DXR substitutes for Nelarabine ([2]; clinical equivalent dose DXR (5×4 mg/kg daily) with Dexamethasone, 10 days post-treatment): could substitute for a DNA-damaging agent in their reduction | reduction of LSCs ([2]; free DXR, 5 doses of 0.15 μg/g, 10 days post-treatment): ineffective | β-catenin binding of the Cd24 promoter region ([3]; high-dose DXR (3 μM)): partially reversed | β-catenin binding of the Cd24 promoter region ([3]; low-dose DXR (30 nM)): essentially abolished
